Experiments:
rat hepatoma cells [1] = assay: Pulse-chase recovery of [35S]-apoB100 (apoB100 degradation) in rat hepatoma cells; format: cell-based; conditions: co-treatment with DHA, FIG. 13A and 13B
Description: (§1) FIG. 13 illustrates that either an iron chelator (DFX) or lipid antioxidants block DHA-stimulated apoB degradation and reactive oxygen species (ROS) production. Rat hepatoma cells were plated in culture wells and pre-incubated in media containing either DHA or DHA with one of the indicated compounds. Radiolabeled methionine/cysteine was added to the culture media for 15 minutes, after which time, the culture media were replaced by fresh media identical in composition except that radiolabeled methionine/cysteine were replaced by unlabeled methionone/cysteine. The recovery of labeled apoB100 ([^35S]-apoB100) from the media and cell lysate was determined at the indicated time points (with time 0 being the point when the fresh media were applied to the cells) by immunoprecipitating apoB species with a rabbit polyclonal antibody to rat apoB, resuspending the immunoprecipitates, combining aliquots from cell lysate and media samples from each well, resolving the protein contents of the combined immunoprecipitates by SDS-polyacrylamide gel electrophoresis (SDS-PAGE), and exposing the resultant gels to X-ray film in order to visualize the labeled apoB bands. In panel A are shown representative signals for radiolabeled apoB100 in each of the treatment conditions. […] For each treatment, there were at least 2 wells/treatment for each time point and the entire experiment repeated. The signal intensities of the apoB100 bands were quantified by densitometry and the mean relative recoveries (the % of the 15 minute, or initial, value still remaining at 120 minutes) ±SEM are shown in panel B. Note that the visual impressions observable in panel A are confirmed by the quantitative analysis; i.e., there is a substantial increase in labeled apoB100 recovery with any of the co-treatments. In panel C, the ROS content of the cell lysates at the end of the experiment was measured by the standard TBARS assay (Stocks et al., 1974, Clin Sci Mol Med 47,215-222). Note that compared to control (BSA), DHA induced a large increase in TBARS, as expected because of its high content on unsaturated bonds.
FIG. 14 illustrates that DHA, but not saturated MA, induces apoB100 degradation in rat hepatoma cells. An experiment similar to the one described in FIG. 13 was performed, with the following changes: A) The immunoprecipitates from cell lysate and media samples were not combined, but separately analyzed. B) In addition to the 15 and 120 minute time points, apoB recovery was determined at 30 minutes. C) In addition to DHA, the effects of the fatty acid myristic (MA) were also tested because it has no unsaturated bonds and should not give rise to ROS.
FIG. 15 illustrates that AA stimulates apoB100 degradation and increases ROS. […] Note in the upper panel that the combined recovery (from two separate wells/time point) of radiolabeled apoB100 decreased from 15 to 120 minutes, indicating significant apoB100 degradation had occurred in the presence of AA. […] In addition to being a source of ROS, AA can also be converted by cyclooxygenase (COX) to bioactive prostaglandin compounds. We therefore repeated the experiment with AA but with co-treatment by the COX inhibitor aspirin.
To further explore the underlying mechanisms, rat hepatoma cells or primary hepatocytes were incubated with the Ω-3 fatty acid DHA complexed to BSA, while blocking candidate cellular mediators. […] There was, however, strong evidence against a role for calcium. Chelation of intracellular Ca^++ with BAPTA-AM, pharmacologic blockage of Ca^++ channels, depletion of the ER-calcium pool, and increasing Ca++ influx with an ionophore each had no effect. Because EGTA also chelates Fe^+++, and DHA is subject to Fe^+++-dependent peroxidation, the role of this lipid modification was examined. As shown in FIG. 13A and 13B, Desferroxamine (DFX), a chelator of Fe^+++, the antioxidant vitamin E (Vit E), and the synthetic antioxidant BHT, each inhibited DHA-stimulated apoB100 degradation by ˜60%.

rat hepatoma cells [2] = assay: TBARS assay of ROS in cell lysates of rat hepatoma cells; format: cell-based; conditions: co-treatment with DHA, FIG. 13C
Description: as §1, with “bonds. […] FIG. 15 illustrates that AA stimulates apoB100 degradation and increases ROS. […] Note in the upper panel that the combined recovery (from two separate wells/time point) of radiolabeled apoB100 decreased from 15 to 120 minutes, indicating significant apoB100 degradation had occurred in the presence of AA. […] In addition to being a source of ROS, AA can also be converted by cyclooxygenase (COX) to bioactive prostaglandin compounds. We therefore repeated the experiment with AA but with co-treatment by the COX inhibitor aspirin.” for “bonds.”

rat primary hepatocytes [3] = assay: Basal apoB100 degradation (pulse-chase recovery) in rat primary hepatocytes; format: cell-based; conditions: FIG. 16A
rat primary hepatocytes [4] = assay: TBARS assay of ROS in rat primary hepatocytes; format: cell-based; conditions: FIG. 16B
125I-LDL = assay: Degradation of exogenously added 125I-LDL (lysosomal inhibition control); format: cell-based, rat
Description: (§2) To determine whether the proteasome mediated Ω-3 fatty acid-induced apoB degradation, rat hepatoma cells were incubated at 37° C. for 4 hr in [^35S]methionine-containing medium supplemented with either BSA or EPA/BSA complexes in the absence or presence of the proteasome inhibitor, lactacystin ([…]; purchased from the laboratory of Dr. E. J. Corey, Harvard University). Samples of cell lysates and conditioned media were subjected to immunoprecipitation analysis with anti-apoB antiserum, followed by SDS-PAGE and fluorography. To determine whether Ω-3 fatty acids targeted apoB to lysosomal degradation, a similar experiment was performed substituting ammonium chloride (40 mM) for lactacystin.
(§3) More evidence against the involvement of re-uptake in Ω-3 fatty acid-induced degradation of apoB is based on the knowledge that lipoproteins captured by either LDL receptors (Brown, M. S., and Goldstein, J. L. (1986) Science 232(4746), 34-47) or heparan sulfate proteoglycans (Williams, K. J. et al. (1992) J Biol Chem 267(19), 13284-92; and Fuki, I. V. et al. (2000) J Biol Chem 275(33), 25742-50) are directed to lysosomes. Thus, rat primary hepatocytes cells were treated with either OA or DHA in the absence or presence of ammonium chloride, a lysosomal inhibitor. […]

rat hepatoma cells [5] = assay: Cell toxicity by TCA-PTA precipitation analysis; format: cell-based; conditions: 40 mM
Description: After electrophoresis, the gels were stained, fixed, soaked in Enhance fluor solution, and dried following protocols supplied by the manufacturer. Dried gels were then exposed to X-ray film at −70° C. and signals on the resulting fluorograms were typically quantified by densitometry or phosphorimaging. Using the total radioactivity applied to each lane of the gel and the relative signal intensity of each band in that lane, the radioactivity associated with each apoprotein species was calculated. In some cases, gel bands were excised and the incorporated radioactivity measured directly by scintillation counting. As a control, the incorporation of [^35S]methionine into total cellular and secreted proteins was measured by TCA-PTA precipitation, as described in Wang, H., Chen, X., and Fisher, E. A. (1993) J Clin Invest 91(4), 1380-9.
To determine whether the proteasome mediated Ω-3 fatty acid-induced apoB degradation, rat hepatoma cells were incubated at 37° C. for 4 hr in [^35S]methionine-containing medium supplemented with either BSA or EPA/BSA complexes in the absence or presence of the proteasome inhibitor, lactacystin ([…]; purchased from the laboratory of Dr. E. J. Corey, Harvard University). Samples of cell lysates and conditioned media were subjected to immunoprecipitation analysis with anti-apoB antiserum, followed by SDS-PAGE and fluorography. […]

rat primary hepatocytes [6] = assay: Lysosomal inhibition and DHA-induced degradation of newly synthesized apoB; format: cell-based; conditions: with lysosomal inhibitor
Description: as §2, §3

Compound	inhibition of DHA-stimulated apoB100 degradation (rat hepatoma cells [1])	DHA-increased ROS, TBARS assay, with co-treatment (rat hepatoma cells [2])	basal level of apoB degradation (rat primary hepatocytes [3])	ROS level (TBARS) (rat primary hepatocytes [4])	inhibition of the degradation of exogenously added 125I-LDL (125I-LDL; ammonium chloride 40 mM)	degradation of 125I-LDL (125I-LDL; rat primary hepatocytes)	cell toxicity assessed by TCA-PTA precipitation analysis (rat hepatoma cells [5])	DHA-induced degradation of newly synthesized apoB (rat primary hepatocytes [6])
CC(=O)N(O)CCCCCNC(=O)CCC(=O)N(O)CCCCCNC(=O)CCC(=O)N(O)CCCCCN [DFX, desferrioxamine]	~60%	reduced	essentially reversed	reduced	–	–	–	–
Cl.N [ammonium chloride]	–	–	–	–	> 80%	decreased	no evidence of cell toxicity	no decrease
vitamin E [Vit E]	~60%	reduced	essentially reversed	reduced	–	–	–	–

Source: patent US20030170643A1, “Regulation of apoB treatment and drug screening for cardiovascular and metabolic disorders or syndromes” (priority 1999, published 2003)
